# In PMC8306139, “A Novel Dialkylamino-Functionalized Chalcone, DML6, Inhibits Cervical Cancer Cell Proliferation, In Vitro, via Induction of Oxidative Stress, Intrinsic Apoptosis and Mitotic Catastrophe” (Molecules, 2021):
# Like-named read-outs stand apart in the source and are kept apart here.
# Assays:
# caspase-9 = assay: Western blot, cleaved caspase-9; format: cell-based; settings: OV2008, 20 μM, 24 hours, vs vehicle
# Procedure: The OV2008 cells were lysed to obtain total cellular protein fractions using Mammalian Protein Extraction Reagent (Catalog # 78501, M-PER™, Thermo Fisher Scientific, Waltham, MA, USA). The cells were seeded in […] at a density of 1 × 10^6 and incubated with 5 or 20 µM of DML6 or 1 µM of doxorubicin (Catalog # T1-2-, TargetMol, Boston, MA, USA) (a positive control) for 24 h. The following day, the cells were washed with ice-cold PBS, scraped using a cell scrapper and collected in Eppendorf tubes. The tubes were centrifuged at 1500 RPM at 4 °C for 5 min. The solution was discarded and replaced with 70 µL of the cell lysis buffer (M-PER reagent, 100 mM Sodium Orthovanadate (NaOV) at a final concentration of 2.5 mM) and a 100X protease inhibitor cocktail (Catalog # P8340, Sigma-Aldrich, St. Louis, MO, USA, final concentration of 1X, containing of aprotinin, bestatin, E-64, leupeptin and pepstatin). Thirty minutes later, the resulting solution was centrifuged at 10,000 RPM at 4 °C for 5 min and the supernatant was collected. The protein concentration of the cell extracts was determined using the bicinchoninic acid (BCA) (Catalog # 786-570, G-Biosciences, Saint Louis, MO, USA) quantification assay. […] Finally, the amount of protein in each blot was quantified using the Image J software (NIH, Bethesda, MD, USA). All data were calculated as a ratio to β-actin.
# OV2008 = assay: MTT assay, OV2008; format: cell-based; settings: 72 h, read-out: IC50 ± SD Cervical OV2008
# Procedure: (§1) The concentration of the tested compounds that produced a 50% inhibition of cell growth (IC50) was determined.
# (§2) A panel of cancer cell lines, including cervical (OV2008 and HeLa), breast (MDA-MB-231), lung (A549) and colon (LOVO), prostate (DU145), human embryonic kidney cells (HEK293), human colon fibroblast cells (CRL1459), and Chinese hamster ovary cells (CHO), were grown as adherent monolayers in flasks containing Dulbecco’s modified Eagle medium (DMEM), supplemented with 10% fetal bovine serum (FBS) and 1% penicillin and streptomycin, in a humidified incubator with 5% CO2 at 37 °C.
# (§3) The cells were seeded evenly (180 μL/well) in 96-well plates, at a density of 3000–5000 cells/well and incubated with serial dilutions of the compounds ranging from 0.1 to 100 μM. The MTT dye (4 mg/ml) was added after 72 h of incubation and incubated with the cells for an additional 4 h at 37 °C, allowing the viable cells to biotransform the yellow-colored MTT into dark-blue formazan crystals. Following incubation, the medium was aspirated, and the formazan crystals were dissolved by adding 100 μL of DMSO to each well. Cytation™ 5 and Cytation™ 7 multi-mode detector (Bio Tek Instruments, Winooski, VT, USA) was used to determine the absorbance readings at a wavelength of 570 nm. The IC50 values were determined based on 3 separate experiments, with each experiment carried out in triplicate. The selectivity of the compounds was determined by comparing their IC50 values in cervical cancer compared to the normal epithelial cell lines, HEK293, CHO, and CRL1459.
# HEK293 = assay: MTT assay, HEK293; format: cell-based, human; settings: read-out: IC50 ± SD Kidney HEK293
# Procedure: as §1, §2
# (§4) The cells were seeded evenly (180 μL/well) in 96-well plates, at a density of 3000–5000 cells/well and incubated with serial dilutions of the compounds ranging from 0.1 to 100 μM. The MTT dye (4 mg/ml) was added after 72 h of incubation and incubated with the cells for an additional 4 h at 37 °C, allowing the viable cells to biotransform the yellow-colored MTT into dark-blue formazan crystals. Following incubation, the medium was aspirated, and the formazan crystals were dissolved by adding 100 μL of DMSO to each well. Cytation™ 5 and Cytation™ 7 multi-mode detector (Bio Tek Instruments, Winooski, VT, USA) was used to determine the absorbance readings at a wavelength of 570 nm. The IC50 values were determined based on 3 separate experiments, with each experiment carried out in triplicate.
# OV2008 cells = assay: IncuCyte Cytotox green assay; format: cell-based; settings: OV2008, up to 72 h, vs vehicle
# Excerpt: The IncuCyte cytotox green reagent (Catalog # 4633, Essence BioScience, Ann Arbour, MI, USA) was used for real time quantification of dead OV2008 cells as previously described. This dye will only penetrate into cells with non-intact membranes (dead or non-viable cells). As the cells die, the increase in cell membrane permeability allows the reagent to enter the nucleus and bind to DNA, which emits green fluorescence at an excitation maximum of 491 nm and emission maximum of 509 nm. OV2008 cells were seeded (100 µL/well) in a 96-well plate and incubated overnight. The following day, DML6 (0.1–100 μM) was prepared at 3X the final assay concentrations in diluted IncuCyte™ Cytotox Reagent and added to each well (50 µL/well). The cells were immediately placed in the IncuCyte® S3 Live-Cell Analysis System (Essen BioScience, Ann Arbor, MI, USA) and images were taken every 2 h up to 72 h and analyzed using the integrated IncuCyte S3 software version 2020B (Essen BioScience, Ann Arbor, MI, USA).
# cancer cell lines = assay: MTT assay, panel of cancer cell lines; format: cell-based
# Procedure: as §1, §2, §3
# DU145 = assay: MTT assay, DU145; format: cell-based; settings: Homo sapiens, DU-145, 72 h, read-out: IC50 ± SD Prostate DU145
# Procedure: as §1, §2, §4
# [1] = test system: Chinese hamster ovary cells (CHO)
# Procedure: as §1, §2
# The cells were seeded evenly (180 μL/well) in 96-well plates, at a density of 3000–5000 cells/well and incubated with serial dilutions of the compounds ranging from 0.1 to 100 μM. […] Cytation™ 5 and Cytation™ 7 multi-mode detector (Bio Tek Instruments, Winooski, VT, USA) was used to determine the absorbance readings at a wavelength of 570 nm. The IC50 values were determined based on 3 separate experiments, with each experiment carried out in triplicate. The selectivity of the compounds was determined by comparing their IC50 values in cervical cancer compared to the normal epithelial cell lines, HEK293, CHO, and CRL1459.
# LOVO = assay: MTT assay, LOVO; format: cell-based; settings: Homo sapiens, LoVo, 72 h, read-out: IC50 ± SD Colon LOVO
# Procedure: as §1, §2, §4
smiles,measurement,setting,value
"CN(C)c1ccc(/C=C/C(=O)c2ccc(Cl)cc2Cl)cc1 [DML6, (E)-1-[2,4-dichlorophenyl]-3-(4-(dimethylamino)phenyl)prop-2-en-1-one]",cleavage of initiator caspase-9,caspase-9,induced the cleavage
same,IC50,OV2008,7.8 µM
same,IC50,HEK293; 72 h,70 ± 42.4 µM
same,IC50,"HEK293; Homo sapiens, HEK293, 72 h",> 65 µM
same,Cytotox green fluorescent signal (dead cells) over time,OV2008 cells,increased significantly
same,"anti-proliferative efficacy in a wide range of cancer cell lines, compared to normal cells",cancer cell lines,moderate to good anti-proliferative efficacy
same,IC50,"cancer cell lines; range over the cell lines, read-out: IC50 values in all of the cancer cell lines",7.8 to 91.9 µM
same,IC50,DU145,96.9 ± 4.4 µM
same,"cytotoxicity in normal cells, CHO",[1],did not produce significant cytotoxicity
same,IC50,LOVO,65 ± 49.5 µM
